Measured values taken from PubChem BioAssay (NCI).
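Abbreviation: GI50, concentration required for 50% inhibition of growth. TGI is the concentration that stops growth completely.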

Legend:
Assay in all cases: inhibition of tumour cell growth, NCI panel, 384-well format
[1] = system: RPMI-8226 leukemia
[2] = system: NCI-H460 NSCLC
[3] = system: U251 glioblastoma
[4] = system: RXF 393 renal
[5] = system: T-47D breast
[6] = system: SNB-19 CNS
[7] = system: MALME-3M melanoma
[8] = system: NCI/ADR-RES ovarian
[9] = system: 786-0 renal
[10] = system: HCT-116 colon
[11] = system: PC-3 prostate
[12] = system: TK-10 renal
[13] = system: SNB-75 CNS
[14] = system: MCF7 breast
[15] = system: MDA-MB-468 breast
[16] = system: UACC-257 melanoma
[17] = system: COLO 205 colon
[18] = system: CAKI-1 renal
[19] = system: MOLT-4 leukemia
[20] = system: SK-MEL-28 melanoma
[21] = system: OVCAR-4 ovarian
[22] = system: HOP-92 NSCLC
[23] = system: NCI-H23 lung
[24] = system: M14 melanoma
[25] = system: IGROV1 ovarian
[26] = system: LOX IMVI melanoma
[27] = system: SK-MEL-2 melanoma
[28] = system: UO-31 renal
[29] = system: SF-539 CNS
[30] = system: HT29 colon
[31] = system: A498 renal
[32] = system: ACHN renal
[33] = system: DU-145 prostate
[34] = system: SN12C renal
[35] = system: NCI-H322M lung
[36] = system: HS 578T breast
[37] = system: K-562 leukemia
[38] = system: A549 NSCLC
[39] = system: SW-620 colon
[40] = system: HCC-2998 colon
[41] = system: BT-549 breast
[42] = system: KM12 colon
[43] = system: NCI-H522 lung
[44] = system: SK-MEL-5 melanoma
[45] = system: MDA-MB-231 breast
[46] = system: SF-295 CNS
[47] = system: SR leukemia

Q: How did the GI50 [1] turn out when `COC1(C(=O)N2Cc3nc(Cl)nc(N[C@H](C)c4cc(N)cc(C(F)(F)F)c4)c3C2)CCOCC1` was run?
A: Its GI50 is 10.6 µM.

Q: What about the TGI [1] of the same compound?
A: Its TGI is 22.5 µM.

Q: And the GI50 [2]?
A: Its GI50 is 16.4 µM.

Q: And the TGI [2]?
A: The TGI was 31 µM.

Q: And the GI50 [3]?
A: The GI50 was 15.1 µM.

Q: And the TGI [3]?
A: The TGI was 29.7 µM.

Q: And the GI50 [4]?
A: Its GI50 is 13.8 µM.

Q: What about the TGI [4] of the same compound?
A: Its TGI is 27.4 µM.

Q: And the GI50 [5]?
A: The GI50 was 12.4 µM.

Q: What about the TGI [5] of the same compound?
A: The TGI was 32.5 µM.

Q: And the GI50 [6]?
A: Its GI50 is 19.3 µM.

Q: And the TGI [6]?
A: Its TGI is over 100 µM.

Q: What about the GI50 [7] of the same compound?
A: The GI50 was 16.2 µM.

Q: What about the TGI [7] of the same compound?
A: The TGI was 34.3 µM.

Q: What about the GI50 [8] of the same compound?
A: The GI50 was 17.5 µM.

Q: What about the TGI [8] of the same compound?
A: Its TGI is 51.8 µM.

Q: And the GI50 [9]?
A: Its GI50 is 16.5 µM.

Q: And the TGI [9]?
A: Its TGI is 33.2 µM.

Q: And the GI50 [10]?
A: Its GI50 is 16.3 µM.

Q: What about the TGI [10] of the same compound?
A: The TGI was 31.2 µM.

Q: What about the GI50 [11] of the same compound?
A: The GI50 was 16.3 µM.

Q: And the TGI [11]?
A: The TGI was 31.5 µM.

Q: And the GI50 [12]?
A: The GI50 was 14.9 µM.

Q: What about the TGI [12] of the same compound?
A: Its TGI is 35.3 µM.

Q: And the GI50 [13]?
A: The GI50 was 10.7 µM.

Q: What about the TGI [13] of the same compound?
A: The TGI was 23.5 µM.

Q: What about the GI50 [14] of the same compound?
A: The GI50 was 13.4 µM.

Q: And the TGI [14]?
A: The TGI was 30 µM.

Q: And the GI50 [15]?
A: The GI50 was 8.68 µM.

Q: And the TGI [15]?
A: The TGI was 24.8 µM.

Q: What about the GI50 [16] of the same compound?
A: Its GI50 is 18.3 µM.

Q: And the TGI [16]?
A: The TGI was 33.3 µM.

Q: What about the GI50 [17] of the same compound?
A: The GI50 was 24 µM.

Q: And the TGI [17]?
A: Its TGI is 56.9 µM.

Q: And the GI50 [18]?
A: Its GI50 is 6.99 µM.

Q: And the TGI [18]?
A: The TGI was 35.4 µM.

Q: And the GI50 [19]?
A: Its GI50 is 8.48 µM.

Q: And the TGI [19]?
A: Its TGI is 21 µM.

Q: What about the GI50 [20] of the same compound?
A: Its GI50 is 18.5 µM.

Q: And the TGI [20]?
A: Its TGI is 34.9 µM.

Q: What about the GI50 [21] of the same compound?
A: The GI50 was 15.6 µM.

Q: And the TGI [21]?
A: The TGI was 43.8 µM.

Q: What about the GI50 [22] of the same compound?
A: The GI50 was 0.646 µM.

Q: What about the TGI [22] of the same compound?
A: The TGI was 18.6 µM.

Q: What about the GI50 [23] of the same compound?
A: Its GI50 is 14.2 µM.

Q: And the TGI [23]?
A: The TGI was 38.6 µM.

Q: What about the GI50 [24] of the same compound?
A: Its GI50 is 17.5 µM.

Q: And the TGI [24]?
A: Its TGI is 32.3 µM.

Q: What about the GI50 [25] of the same compound?
A: The GI50 was 16.1 µM.

Q: And the TGI [25]?
A: Its TGI is 33.6 µM.

Q: What about the GI50 [26] of the same compound?
A: The GI50 was 18.7 µM.

Q: What about the TGI [26] of the same compound?
A: The TGI was 32.8 µM.

Q: What about the GI50 [27] of the same compound?
A: Its GI50 is 16.9 µM.

Q: What about the TGI [27] of the same compound?
A: The TGI was 31.1 µM.

Q: What about the GI50 [28] of the same compound?
A: Its GI50 is 15.2 µM.

Q: And the TGI [28]?
A: Its TGI is 29.2 µM.

Q: And the GI50 [29]?
A: Its GI50 is 15.3 µM.

Q: What about the TGI [29] of the same compound?
A: The TGI was 28.7 µM.

Q: And the GI50 [30]?
A: The GI50 was 18.2 µM.

Q: And the TGI [30]?
A: Its TGI is 35.9 µM.

Q: What about the GI50 [31] of the same compound?
A: The GI50 was 14.1 µM.

Q: And the TGI [31]?
A: The TGI was 35.3 µM.

Q: And the GI50 [32]?
A: Its GI50 is 20.4 µM.

Q: And the TGI [32]?
A: Its TGI is 67 µM.

Q: And the GI50 [33]?
A: Its GI50 is 19.9 µM.

Q: What about the TGI [33] of the same compound?
A: Its TGI is 50.9 µM.

Q: What about the GI50 [34] of the same compound?
A: The GI50 was 10.1 µM.

Q: What about the TGI [34] of the same compound?
A: Its TGI is 25.3 µM.

Q: And the GI50 [35]?
A: Its GI50 is 13.5 µM.

Q: And the TGI [35]?
A: Its TGI is 43.2 µM.

Q: And the GI50 [36]?
A: The GI50 was 12.6 µM.

Q: And the TGI [36]?
A: The TGI was 25.7 µM.

Q: And the GI50 [37]?
A: Its GI50 is 0.152 µM.

Q: And the TGI [37]?
A: The TGI was 15 µM.

Q: And the GI50 [38]?
A: Its GI50 is 24.5 µM.

Q: And the TGI [38]?
A: The TGI was over 100 µM.

Q: What about the GI50 [39] of the same compound?
A: Its GI50 is 17.9 µM.

Q: What about the TGI [39] of the same compound?
A: The TGI was 40.2 µM.

Q: And the GI50 [40]?
A: The GI50 was 15.4 µM.

Q: What about the TGI [40] of the same compound?
A: The TGI was 30.3 µM.

Q: What about the GI50 [41] of the same compound?
A: Its GI50 is 14.5 µM.

Q: What about the TGI [41] of the same compound?
A: The TGI was 28 µM.

Q: And the GI50 [42]?
A: The GI50 was 3.55 µM.

Q: What about the TGI [42] of the same compound?
A: The TGI was 22 µM.

Q: What about the GI50 [43] of the same compound?
A: The GI50 was 12.5 µM.

Q: And the TGI [43]?
A: The TGI was 34.4 µM.

Q: What about the GI50 [44] of the same compound?
A: Its GI50 is 15 µM.

Q: What about the TGI [44] of the same compound?
A: Its TGI is 28.4 µM.

Q: And the GI50 [45]?
A: Its GI50 is 22.4 µM.

Q: And the TGI [45]?
A: The TGI was 55.3 µM.

Q: And the GI50 [46]?
A: Its GI50 is 15.1 µM.

Q: What about the TGI [46] of the same compound?
A: Its TGI is 32.5 µM.

Q: What about the GI50 [47] of the same compound?
A: Its GI50 is 10.5 µM.

Q: What about the TGI [47] of the same compound?
A: Its TGI is 22.4 µM.
